Drawing on US5332734A, “Oxazinone derivative” (Japan Tobacco, Incorporated, priority 1991, dated 1994), this text covers IC50 for six compounds.

pIC50: −log10 of the molar value.

Common to all, as to assay type: biochemical
Experiment [1] concerns the target T1, human leukocyte elastase (HLE) (Homo sapiens, UniProt P08246).
T1 construct: applying a density gradient centrifugal operation so as to obtain neutrophils; from tissue; host or cells: neutrophils from human venous blood
T1 sequence (P08246 30-267): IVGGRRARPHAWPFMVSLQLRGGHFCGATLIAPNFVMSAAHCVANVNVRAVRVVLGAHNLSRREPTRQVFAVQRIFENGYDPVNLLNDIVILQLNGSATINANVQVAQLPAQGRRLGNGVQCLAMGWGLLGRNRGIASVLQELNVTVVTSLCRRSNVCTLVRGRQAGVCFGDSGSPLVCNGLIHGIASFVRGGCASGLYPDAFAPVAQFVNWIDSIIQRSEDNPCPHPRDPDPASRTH
The experiment can be described thus: HLE inhibitory activity. Conditions: HLE 5.63 nM, substrate 0.2625 mM, pH 8.6, 37° C. The method, then:
(§1) Inhibotory activities of the oxadinone derivative of the present invention against human leukocyte elastase (HLE), human sputum elastase (HSE), human cathepsin G (HCG), bovine pancreatic α-chymotrypsin (CYT) and bovine pancreatic trypsin (TRY) were measured as follows:
(1) Measurement of HLE Inhibitory Activity
A buffy coat was obtained by subjecting human vein blood to centrifugal separation, followed by adding distilled water to the buffy coat thus obtained for performing a low tension treatment so as to collapse erythrocytes. A mixture consisting of 10 parts of a 33.4% Conrey 400 solution and 24 parts of 9% of Ficoll solution was added to the residual blood cell component, followed by applying a density gradient centrifugal operation so as to obtain neutrophils. The neutrophil fraction was washed three times with Hanks' buffer so as to recover cells, which were frozen at -80° C. for preservation until the cells were used. The cells preserved under a frozen state were thawed with warm water of 37° C. and suspended in the lysis buffer (0.1M Tris-HCl pH 7.5, 1M MgCl2, 0.1% Brij 35), the amount of the buffer being 9 times as much as that of the cells. Then, the suspended cells were collapsed with polotron while cooling the suspension with ice. Then, the suspension was subjected to a centrifugal separation at 100,000×g for one hour so as to remove the precipitate. Also, a buffer (5 mM Tris-HCl pH 7.5, 1M NaCl, 1.1% Brij 35) was added to the supernatant in an amount twice as much as the supernatant so as to prepare a crude solution of an enzyme extract. The crude solution of an enzyme extract was adsorbed on an aprotinin affinity column. Further, the active fraction eluted with a 50 ml glycine-HCl solution (pH 3.3, 1M NaCl, 0.1% Brij 35) was passed through a MONO S ion-exchange chromatography. The active fraction eluted with a 2M NaCl linear gradient was dialyzed and, then, subjected to a freeze-drying so as to prepare an enzyme sample.
A test compound to be detected was dissolved in DMSO (for fluorometry) so as to prepare solutions of various concentrations. Then, the solution of 0.2M Tris-HCl (pH 9.6) was added to each of the solutions in an amount twice as much as the solution so as to prepare a test solution. On the other hand, a synthetic substrate (MeOSuc-Ala-Pro-Val-pNA; FUNAKOSHI) was dissolved in DMSO, followed by adding 0.2M tris-HCl solution (pH 8.6) to the solution in an amount twice as much as the solution so as to prepare a substrate solution.
A microplate (NUNK) provided with 96 wells was used for the reaction. The reaction was repeatedly carried out 6 times for each concentration of the test compound. Each of 140 μl of the enzyme solution (0.2M Tris-HCl, pH 8.6), 30 μl of the test material solution and 30 μl of the substrate solution was pre-incubated for 10 minutes at 37° C. for each well of the microplate. After incubation of a mixture of the enzyme solution and the test material solution for 10 minutes, the substrate solution was added so as to carry out the enzyme reaction. For determining the substrate decomposition, the absorbance (405 run) of the released pNA was measured by a microplate reader (MTP-100; CORONA), and the substrate decomposition was calculated on the basis of the average value of the absorbances repeatedly measured 6 times. The inhibitory concentration of the test compound relative to the decomposition amount of the substrate in the case where the test compound was not added was obtained as IC50 value.

Experiment [2] has as its target T2, human cathepsin G (HCG) (Homo sapiens, UniProt P08311).
T2 construct: purchased Cosmo Bio Inc
T2 sequence (P08311 21-255): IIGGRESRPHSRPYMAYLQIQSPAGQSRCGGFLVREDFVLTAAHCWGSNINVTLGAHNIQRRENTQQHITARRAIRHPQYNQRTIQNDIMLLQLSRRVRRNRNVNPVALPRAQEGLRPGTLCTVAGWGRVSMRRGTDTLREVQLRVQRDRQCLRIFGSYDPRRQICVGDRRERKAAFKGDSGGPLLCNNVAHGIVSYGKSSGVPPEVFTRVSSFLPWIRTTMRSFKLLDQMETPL
In words: HCG inhibitory activity. Conditions: HCG 50 nM, substrate 0.5 mM, pH 7.5. The method, then: as §1
(3) Measurement of HCG Inhibitory Activity
a) Enzyme Preparing Method Bought from Cosmo Bio Inc.
Employed was a measuring method similar to that described previously in conjunction with the measurement of the HLE inhibiting activity, except that used was a buffer solution of pH 7.5. The final concentrations of HCG and the synthetic substrate (Ac-Ala-Ala-Pro-Phe-pNA; FUNAKOSHI) in the solution of the enzyme reaction were 50 nM and 0.5 mM, respectively.

Experiment [3] has as its target T3, bovine pancreatic α-chymotrypsin (CYT) (Bos taurus, UniProt P00766).
T3 construct: purchased Sigma Inc; host or cells: bovine pancreas (by its name)
The experiment can be described thus: CYT inhibitory activity. Conditions: CYT 3.4 nM, substrate 0.273 mM, pH 8.0. The method, then: as §1
(4) Measurement of CYT Inhibitory Activity
a) Enzyme Preparing Method Bought from Sigma Inc.
Employed was a measuring method similar to that described previously in conjunction with the measurement of the HLE inhibiting activity, except that used was a buffer solution of pH 8.0. The final concentrations of CYT and the synthetic substrate (Ac-Ala-Ala-Pro-Phe-pNA; FUNAKOSHI) in the solution of the enzyme reaction were 3.4 nM and 0.273 mM, respectively.

As for `Cc1cccc2nc([C@@H](NC(=O)CNC(=O)C3c4ccccc4-c4ccccc43)C(C)C)oc(=O)c12` [Compound 4, 2-[1(S)-[[N-(9-fluorenylcarbonyl)glycyl]amino]-2-methylpropyl]-5-methyl-4H-3,1-benzoxazin-4-one], the pIC50 is 6.12 in experiment [1], 4.95 in experiment [2] and 5.18 in experiment [3].
The matching figures for `Cc1cccc2nc([C@@H](NC(=O)COC3c4ccccc4-c4ccccc43)C(C)C)oc(=O)c12` [Compound 3, 2-{1(S)-[(9-fluorenyloxyacetyl)amino]-2-methylpropyl}-5-methyl-4H-3,1-benzoxazin-4-one]: 6.29, under 4.56 and 5.46.
Turning to `Cc1cccc2nc([C@@H](NC(=O)C=C3c4ccccc4-c4ccccc43)C(C)C)oc(=O)c12` [Compound 6, 2-{1(S)-[(fluorene-Δ^9, ^α -acetyl)amino]-2-methylpropyl}-5-methyl-4H-3,1-benzoxazin-4-one], the pIC50 in experiment [1] is 6.19.
As for `Cc1cccc2nc(CNC(=O)COC3c4ccccc4-c4ccccc43)oc(=O)c12` [Compound 7, 2-[(9-fluorenyloxyacetyl)aminomethyl]-5-methyl-4H-3,1-benzoxazin-4-one], the pIC50 in experiment [1] is 5.89; in experiment [2], under 5.12; in experiment [3], under 5.12.
`CC(=O)N(CCC(=O)N[C@H](c1nc2cccc(C)c2c(=O)o1)C(C)C)C1c2ccccc2-c2ccccc21` [Compound 5, 2-[1(S)-[[N-acetyl-N-(9-fluorenyl)-β-alanyl]amino]-2-methylpropyl]-5-methyl-4H-3,1-benzoxazin-4-one]: the pIC50 in experiment [1] was 6.62; in experiment [2] it was under 4.91; in experiment [3], 5.71.
`Cc1cccc2nc(C(C)(C)NC(=O)COC3c4ccccc4-c4ccccc43)oc(=O)c12` [Compound 8, 2-{1-[(9-fluorenyloxyacetyl)amino]-1-methylethyl}-5-methyl-4H-3,1-benzoxazin-4-one]: the pIC50 in experiment [1] is 6.00.
